According to patent US20140011799A1 (Bristol-Myers Squibb Company, priority 2012, published 2014):
Several values for one entry are separate records, joined by “and”; a condition that tells them apart may be missing. Identical values can stand only once.

What was measured:
Endothelial lipase (EL) = target: T1, Endothelial lipase (EL) (Homo sapiens, UniProt Q9Y5X9); experiment: Endothelial lipase (EL) enzymatic assay, fluorescent substrate A10070 in DMPG vesicles; assay type: biochemical; settings: EL from conditioned media of HT-1080 cells; compound preincubated 30 min at 37° C; read-out: EL IC50
T1 construct: HT-1080 cells that were transformed using RAGE technology (Athersys) to overexpress endogenous EL; endogenous in cells; conditioned medium used
T1 sequence (Q9Y5X9 21-500): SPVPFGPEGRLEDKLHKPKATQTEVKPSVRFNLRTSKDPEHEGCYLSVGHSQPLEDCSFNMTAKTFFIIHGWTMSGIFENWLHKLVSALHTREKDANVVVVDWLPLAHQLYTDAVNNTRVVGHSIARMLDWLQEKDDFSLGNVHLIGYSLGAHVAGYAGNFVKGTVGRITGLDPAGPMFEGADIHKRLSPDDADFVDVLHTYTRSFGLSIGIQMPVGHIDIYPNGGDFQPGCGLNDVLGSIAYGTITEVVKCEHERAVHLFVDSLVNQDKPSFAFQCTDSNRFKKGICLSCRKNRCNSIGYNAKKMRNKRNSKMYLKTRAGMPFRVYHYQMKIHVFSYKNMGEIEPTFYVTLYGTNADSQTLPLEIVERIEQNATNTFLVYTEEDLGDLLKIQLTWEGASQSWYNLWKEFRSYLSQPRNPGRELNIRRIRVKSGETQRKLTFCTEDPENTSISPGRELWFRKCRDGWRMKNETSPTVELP
Method in brief: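 Substrate A10070 sits in sonicated DMPG vesicles at 0.11 mole fraction. Lipase and compound preincubated 30 min, 37° C, in HEPES pH 8.0 buffer with CaCl2.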

hepatic lipase (HL) = target: T2, hepatic lipase (HL) (Homo sapiens, UniProt P11150); experiment: Hepatic lipase (HL) enzymatic assay, fluorescent substrate A10070 in DMPG vesicles; assay type: biochemical; settings: HL partially purified from conditioned media of COS cells; compound preincubated 30 min at 37° C; read-out: HL IC50
T2 construct: made in house; host or cells: COS cells (conditioned medium, partially purified)
T2 sequence (P11150 23-499): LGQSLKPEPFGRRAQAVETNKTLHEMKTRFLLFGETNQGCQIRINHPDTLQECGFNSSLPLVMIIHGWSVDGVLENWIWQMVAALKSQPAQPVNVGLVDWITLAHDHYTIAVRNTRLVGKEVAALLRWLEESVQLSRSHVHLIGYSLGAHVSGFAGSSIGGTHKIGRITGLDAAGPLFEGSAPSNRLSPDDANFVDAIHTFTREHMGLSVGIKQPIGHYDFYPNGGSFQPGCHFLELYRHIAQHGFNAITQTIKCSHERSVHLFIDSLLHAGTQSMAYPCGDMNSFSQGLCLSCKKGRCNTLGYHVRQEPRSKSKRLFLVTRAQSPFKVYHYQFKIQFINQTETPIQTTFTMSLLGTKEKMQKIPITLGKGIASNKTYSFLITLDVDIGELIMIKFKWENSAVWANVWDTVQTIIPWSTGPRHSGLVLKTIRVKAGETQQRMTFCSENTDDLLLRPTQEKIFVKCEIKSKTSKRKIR
Description: Endothelial lipase (EL) and hepatic lipase (HL) activities were measured using a fluorescent substrate, A10070, (Invitrogen, CA) doped into an artificial vesicle containing DMPG (Avanti Polar Lipids) as the excipient. Vesicles were prepared by combining 571 μL of 29 mM DMPG in a 1:1 mixture of MeOH and CHCl3 with 2000 μL of 1 mM A10070 in a 1:1 mixture of MeOH and CHCl3. The mixture was dried under nitrogen in multiple vials then resuspended in 20 mL total volume of 50 mM HEPES pH 8.0 buffer containing 50 mM NaCl and 0.2 mM EDTA. The sample was allowed to sit at room temperature for 15 min and then was sonicated 3×4 mins on ice with a Branson Sonicator using duty cycle 1. This preparation provides vesicles with a mole fraction of 0.11 for the FRET substrate.
The enzymatic assay was measured using 384-well white Optiplates. Each well contained 20 μL of assay buffer (50 mM HEPES pH 8.0, 50 mM NaCl and 1 mM CaCl2) and 0.25 μL of a DMSO solution containing a compound of interest. EL or HL (10 μL) was added and allowed to incubate with the compound for 30 min at 37° C. The source of EL was conditioned media obtained from HT-1080 cells that were transformed using RAGE technology (Athersys) to overexpress endogenous EL, and HL was partially purified from conditioned media obtained from COS cells overexpressing HL. The reaction was started by the addition of 10 μL of a 1:10 dilution of vesicles. The final total reaction volume was […]. The reaction rates were measured on a Gemini plate reader with an excitation wavelength of 490 nm and an emission wavelength of 530 nm. Readings were taken over a period of 60 minutes, and the slope between 300 and 900 secs of the readout was used to calculate the rate of the reaction.

| SMILES | IC50 (Endothelial lipase (EL)) [µM] | IC50 (hepatic lipase (HL)) |
| --- | --- | --- |
| NS(=O)(=O)NCc1nnc(C(c2nc3ccc(-c4ccccc4)cc3s2)S(=O)(=O)CC(O)CO)o1 (mixture of isomers) [Example 171, N-((5-(((2,3-Dihydroxypropyl)sulfonyl)(6-phenyl-1,3-benzothiazol-2-yl)methyl)-1,3,4-oxadiazol-2-yl)methyl)sulfamide] | < 0.01 | < 0.01 µM |
| CS(=O)(=O)C(c1nnc(CC2SC(=O)NC2=O)o1)c1nc2c(F)cc(-c3ccccc3)cc2s1 (stereo not shown) [Example 94, 5-((5-((4-fluoro-6-phenyl-benzo[d]thiazol-2-yl) (methylsulfonyl)methyl)-1,3,4-oxadiazol-2-yl)methyl)thiazolidine-2,4-dione] | < 0.01 | – |
| CC(C)S(=O)(=O)C(c1nnc(CC2SC(=O)NC2=O)o1)c1nc2c(F)cc(-c3ccccc3)cc2s1 (stereo not shown) [Example 95, 5-((5-((4-fluoro-6-phenyl-benzo[d]thiazol-2-yl) (isopropylsulfonyl)methyl)-1,3,4-oxadiazol-2-yl)methyl)thiazolidine-2,4-dione] | < 0.01 | – |
| Cc1cc2nc(C(c3nnc(CC4SC(=O)NC4=O)o3)S(C)(=O)=O)sc2cc1-c1ccccc1 (stereo not shown) [Example 96, 5-((5-((5-methyl-6-phenylbenzo[d]thiazol-2-yl)(methyl-sulfonyl)methyl)-1,3,4-oxadiazol-2-yl)methyl)thiazolidine-2,4-dione] | < 0.01 | – |
| Cc1cc2nc(C(c3nnc(CC4SC(=O)NC4=O)o3)S(=O)(=O)Cc3ccccc3)sc2cc1-c1ccccc1 (stereo not shown) [Example 97, 5-((5-((benzylsulfonyl) (5-methyl-6-phenyl-benzo[d]thiazol-2-yl)methyl)-1,3,4-oxadiazol-2-yl)methyl)thiazolidine-2,4-dione] | < 0.01 | – |
| Cn1cc(-c2ccc3nc(C(c4nnc(CNC(=O)OC(C)(C)C)o4)S(C)(=O)=O)sc3c2)cn1 (stereo not shown) [Example 98, tert-butyl ((5-((6-(1-methyl-1H-pyrazol-4-yl)-1,3-benzothiazol-2-yl)(methylsulfonyl)methyl)-1,3,4-oxadiazol-2-yl)methyl) carbamate] | 0.168 | > 25 µM |
| CS(=O)(=O)C(c1nnc(CC2SC(=O)NC2=O)o1)c1nc2ccc(C3=CCOCC3)cc2s1 (stereo not shown) [Example 99, 5-((5-((6-(3,6-dihydro-2H-pyran-4-yl)-1,3-benzothiazol-2-yl)(methylsulfonyl)methyl)-1,3,4-oxadiazol-2-yl)methyl)-1,3-thiazolidine-2,4-dione] | < 0.01 | 0.142 µM |
| CS(=O)(=O)C(c1nnc(CC2SC(=O)NC2=O)o1)c1nc2ccc(Br)cc2s1 (stereo not shown) [Example 100, 5-((5-((6-bromo-1,3-benzothiazol-2-yl)(methylsulfonyl)methyl)-1,3,4-oxadiazol-2-yl)methyl)-1,3-thiazolidine-2,4-dione] | 0.077 | 0.291 µM |
| CS(=O)(=O)C(c1nnc(CC2SC(=O)NC2=O)o1)c1nc2ccc(-c3ccc(=O)n(Cc4ccccc4)c3)cc2s1 (stereo not shown) [Example 101, 5-((5-((6-(1-benzyl-6-oxo-1,6-dihydro-3-pyridinyl)-1,3-benzothiazol-2-yl)(methylsulfonyl)methyl)-1,3,4-oxadiazol-2-yl)methyl)-1,3-thiazolidine-2,4-dione] | < 0.01 | 0.16 µM |
| Cc1nc(C)c(-c2ccc3nc(C(c4nnc(CC5SC(=O)NC5=O)o4)S(C)(=O)=O)sc3c2)s1 (stereo not shown) [Example 102, 5-((5-((6-(2,4-dimethyl-1,3-thiazol-5-yl)-1,3-benzothiazol-2-yl)(methylsulfonyl)methyl)-1,3,4-oxadiazol-2-yl)methyl)-1,3-thiazolidine-2,4-dione] | < 0.01 | < 0.01 µM |
| CS(=O)(=O)C(c1nnc(CC2SC(=O)NC2=O)o1)c1nc2ccc(-c3ccnc(C#N)c3)cc2s1 (stereo not shown) [Example 103, 4-(2-((5-((2,4-dioxo-1,3-thiazolidin-5-yl)methyl)-1,3,4-oxadiazol-2-yl)(methylsulfonyl)methyl)-1,3-benzothiazol-6-yl)-2-pyridinecarbonitrile] | < 0.01 | < 0.01 µM and 0.036 µM |
| CS(=O)(=O)C(c1nnc(CC2SC(=O)NC2=O)o1)c1nc2ccc(-c3cnc(OCc4ccccc4)nc3)cc2s1 (stereo not shown) [Example 104, 5-((5-((6-(2-(benzyloxy)-5-pyrimidinyl)-1,3-benzothiazol-2-yl)(methylsulfonyl)methyl)-1,3,4-oxadiazol-2-yl)methyl)-1,3-thiazolidine-2,4-dione] | < 0.01 | < 0.01 µM and 0.011 µM |
| CS(=O)(=O)C(c1nnc(CC2SC(=O)NC2=O)o1)c1nc2ccc(-c3ccc(C(=O)OCc4ccccc4)cc3)cc2s1 (stereo not shown) [Example 105, benzyl 4-(2-((5-((2,4-dioxo-1,3-thiazolidin-5-yl)methyl)-1,3,4-oxadiazol-2-yl)(methylsulfonyl)methyl)-1,3-benzothiazol-6-yl)benzoate] | < 0.01 | < 0.01 µM |
| O=C1NC(=O)C(Cc2nnc(C(c3nc4ccc(-c5ccc(C(=O)N6CCOCC6)cc5)cc4s3)S(=O)(=O)CCN3CCOCC3)o2)S1 (stereo not shown) [Example 106, 5-((5-((6-(4-(4-morpholinylcarbonyl)phenyl)-1,3-benzothiazol-2-yl)((2-(4-morpholinyl)ethyl)sulfonyl)methyl)-1,3,4-oxadiazol-2-yl)methyl)-1,3-thiazolidine-2,4-dione] | < 0.01 | 1.34 µM |
| CC(C)(C)OC(=O)Cc1nnc(C(c2nc3ccc(-c4ccc(C(=O)N5CCOCC5)cc4)cc3s2)S(C)(=O)=O)o1 (stereo not shown) [Example 107, tert-butyl (5-((methylsulfonyl)(6-(4-(4-morpholinylcarbonyl)phenyl)-1,3-benzothiazol-2-yl)methyl)-1,3,4-oxadiazol-2-yl)acetate] | 0.028 | 0.013 µM |
| CC(C)(C)OC(=O)Cc1nnc(C(c2nc3ccc(-c4ccc(C(=O)N5CCOCC5)cc4)cc3s2)S(=O)(=O)Cc2ccccc2)o1 (stereo not shown) [Example 108, tert-butyl (5-((benzylsulfonyl)(6-(4-(4-morpholinylcarbonyl)phenyl)-1,3-benzothiazol-2-yl)methyl)-1,3,4-oxadiazol-2-yl)acetate] | 0.024 | 0.014 µM |
| NS(=O)(=O)NCc1nnc(C(c2nc3ccc(-c4ccc(Cl)cc4)cc3s2)S(=O)(=O)Cc2ccccc2)o1 (stereo not shown) [Example 126, N-((5-((benzylsulfonyl)(6-(4-chlorophenyl)-1,3-benzothiazol-2-yl)methyl)-1,3,4-oxadiazol-2-yl)methyl) sulfamide] | < 0.01 | – |
| CC(c1nnc(CNS(N)(=O)=O)o1)c1nc2ccc(-c3ccc(F)nc3)cc2s1 (stereo not shown) [Reference 3, N-((5-(1-(6-(6-Fluoro-3-pyridinyl)-1,3-benzothiazol-2-yl)ethyl)-1,3,4-oxadiazol-2-yl)methyl)sulfamide, reference compound] | 6.52 | – |
| CC(O)(c1nnc(CNS(N)(=O)=O)o1)c1nc2ccc(-c3ccc(F)nc3)cc2s1 (stereo not shown) [Reference 4, N-((5-(1-(6-(6-Fluoro-3-pyridinyl)-1,3-benzothiazol-2-yl)-1-hydroxyethyl)-1,3,4-oxadiazol-2-yl)methyl)sulfamide, reference compound] | 14.9 | – |
